Data from the NIST ThermoML archive (doi:10.1016/j.jct.2005.10.001).

Legend:
[1] = refractive index (Na D-line) (dimensionless); details: 293.15 K; 101.33 kPa; Liquid; Standard Abbe refractometry
[2] = Liquid; for mass density: 293.15 K, 101.33 kPa, Vibrating tube method

CC(C)=O [acetone]
Details	mass density [kg/m3]	refractive index
[1]	–	1.359
[2]	784.5	–

[2]
Details	vapor or sublimation pressure [kPa]
317.58 K	66.66
322.68 K	79.99
323.15 K	81.39
324.94 K	86.66
328.98 K	99.99

C=C(C)OCC [2-ethoxy-1-propene]
Details	mass density [kg/m3]	refractive index
[1]	–	1.3913
[2]	771.2	–

[2], Ebulliometric method (Recirculating still)
Details	vapor or sublimation pressure [kPa]
320.98 K	62.74
322.13 K	65.19
322.7 K	66.66
323.15 K	67.84
323.47 K	68.4
324.5 K	70.65
325.43 K	72.69
326.52 K	75.47
327.43 K	77.89
327.69 K	79.99
328.26 K	80.16
329.39 K	83.21
329.89 K	85.35
329.96 K	86.66
331.07 K	88.17
331.1 K	89.99
331.48 K	90.62
332.88 K	93.41
333.15 K	95.98
333.68 K	96.12
334.46 K	98.47
334.57 K	99.82
334.67 K	99.99

CCC(C)=O [butanone]
Details	mass density [kg/m3]	refractive index
[1]	–	1.3765
[2]	799.8	–

[2]
Details	vapor or sublimation pressure [kPa]
333.15 K	51.89
340.17 K	66.66
345.51 K	79.99
349.12 K	89.99
352.3 K	99.99
